Measured values published in paper PMC3260207, “Site-Directed Mutations and the Polymorphic Variant Ala160Thr in the Human Thromboxane Receptor Uncover a Structural Role for Transmembrane Helix 4” (PLoS ONE, 2012).
Residue numbers refer to the chain shown, from its start.

Columns and labels:
TP F115A mutant = molecular target: T1, TP F115A mutant (Homo sapiens, UniProt P21731, F115A); assay: Saturation radioligand binding with [3H] SQ 29,548, membranes; parameters: expressed in transfected cells; host or cells: COS-1 cells (membranes), transient, pMT4; conditions: picomoles of TP per milligram of total membrane protein, mean ± S.E
T1 sequence (P21731 1-343 F115A): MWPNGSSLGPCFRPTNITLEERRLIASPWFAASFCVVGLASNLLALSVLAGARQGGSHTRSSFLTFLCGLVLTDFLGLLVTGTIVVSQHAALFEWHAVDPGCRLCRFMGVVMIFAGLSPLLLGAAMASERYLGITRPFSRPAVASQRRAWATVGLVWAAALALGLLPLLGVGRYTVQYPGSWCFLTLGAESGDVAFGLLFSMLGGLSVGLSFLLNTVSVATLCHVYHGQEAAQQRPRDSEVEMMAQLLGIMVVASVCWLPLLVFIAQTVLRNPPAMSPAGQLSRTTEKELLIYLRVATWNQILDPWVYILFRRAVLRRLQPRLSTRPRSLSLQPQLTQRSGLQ
Method: Amino acid substitutions were introduced into the synthetic TPα gene carried by the expression vector pMT4 as described previously, [29]. DNA sequences of all the mutated genes were verified by automated DNA sequencing. To minimize variations in transfection efficiency, the total amount transfected DNA was kept constant in all cases at 1 µg of DNA per 7×10^5 cells. The wild type TP or mutant genes were expressed in COS-1 cells using a DEAE-dextran based transient transfection method, [29], and in HEK293T cells using lipofectamine 2000 (Invitrogen). Except unless specified, the membranes prepared from COS-1 cells were used for radioligand binding assays and immunoblots. […] The protein concentration in the resuspended membrane pellet was determined using a modified DC protein assay kit from Bio-Rad Laboratories (Hercules, CA).
These were carried out in Buffer C for 60 min at room temperature, using 2 to 20 µg of membrane protein and different concentrations of [^3H] […] Filter-bound radioactivity was measured using a liquid scintillation counter. Equilibrium dissociation constants (Kd) were determined from saturation isotherms using PRISM software version 5.0 (GraphPad Software Inc, San Diego, CA, USA). The Ki values were calculated from the IC50, using the equation of Cheng and Prusoff by PRISM software version 5.0.

TP G164V mutant = molecular target: T2, TP G164V mutant (Homo sapiens, UniProt P21731, G164V); assay: Intracellular calcium mobilization (Fluo-4NW) in transfected HEK293T cells; format: cell-based; conditions: read-out: EC50 of agonist U46619 (calcium mobilized), transiently transfected HEK293T cells, mean ± S.E
T2 construct: expressed in transfected cells; HEK293T (calcium assays)
T2 sequence (P21731 1-343 G164V): T1 sequence (P21731 1-343 F115A) with A115F, G164V
Method: (§1) Amino acid substitutions were introduced into the synthetic TPα gene carried by the expression vector pMT4 as described previously, [29]. DNA sequences of all the mutated genes were verified by automated DNA sequencing. To minimize variations in transfection efficiency, the total amount transfected DNA was kept constant in all cases at 1 µg of DNA per 7×10^5 cells. The wild type TP or mutant genes were expressed in COS-1 cells using a DEAE-dextran based transient transfection method, [29], and in HEK293T cells using lipofectamine 2000 (Invitrogen). Except unless specified, the membranes prepared from COS-1 cells were used for radioligand binding assays and immunoblots. For intracellular calcium determination assays and immunofluorescence imaging, HEK293T cells were used. For transient transfections of HEK293T cells using the plasmid pMT4, lipofectamine 2000 (Invitrogen) mediated transfection was used as described by the manufacturer. Membranes were prepared using Buffers A and B and as described previously, [29]. The protein concentration in the resuspended membrane pellet was determined using a modified DC protein assay kit from Bio-Rad Laboratories (Hercules, CA).
(§2) Changes in intracellular calcium were measured by using the fluorescent calcium sensitive dye Fluo-4NW (Invitrogen). After 6–8 hours of transient transfection of HEK293T cells using lipofectamine 2000, 100,000 viable cells were plated into each well of a 96-well tissue culture treated BD-falcon optilux plates. Cells mock transfected with vector pMT4 alone were used as a negative control. Following 24 hours of incubation at 37°C, the media was removed and cells were incubated with the dye Fluo-4NW (Invitrogen) containing 77 µg/ml of probenecid for 1 hour, as recommended by the manufacturer. […] Dose–response curves were generated and EC50 values calculated by nonlinear regression analysis using PRISM software version 5.0 (GraphPad Software Inc, San Diego, CA) after subtracting the responses of mock-transfected cells stimulated with same concentrations of agonists.

TP F107A mutant = molecular target: T3, TP F107A mutant (Homo sapiens, UniProt P21731, F107A); assay: as above; format: cell-based; conditions: read-out: EC50 of agonist U46619 (calcium mobilized), transiently transfected HEK293T cells, mean ± S.E
T3 construct: expressed in transfected cells; HEK293T (calcium assays)
T3 sequence (P21731 1-343 F107A): T1 sequence (P21731 1-343 F115A) with F107A, A115F
Method: as §1, §2

TP G164A mutant = molecular target: T4, TP G164A mutant (Homo sapiens, UniProt P21731, G164A); assay: as above; format: cell-based; conditions: read-out: EC50 of agonist U46619 (calcium mobilized), transiently transfected HEK293T cells, mean ± S.E
T4 construct: expressed in transfected cells; HEK293T (calcium assays)
T4 sequence (P21731 1-343 G164A): T1 sequence (P21731 1-343 F115A) with A115F, G164A
Method: as §1, §2

## O=C(O)CCC/C=C\C[C@@H]1[C@H](CNNC(=O)Nc2ccccc2)[C@H]2CC[C@@H]1O2 [SQ 29,548]
TP F115A mutant
  Bmax, binding maximum of the ligand SQ 29,548 for the receptor: 1.8 ± 0.2 pmol/mg

## CCCCC[C@H](O)/C=C/[C@@H]1[C@@H](C/C=C\CCCC(=O)O)[C@H]2CO[C@@H]1C2 [U46619]
TP G164V mutant
  EC50: 38 ± 2.1 nM
TP F107A mutant
  EC50: 2.5 ± 0.7 nM
TP G164A mutant
  EC50: 2.5 ± 0.2 nM
